For 30 molecules, IC50 results are on record in patent publication US10233173B2, “Substituted 1,2,3-triazoles as NR2B-selective NMDA modulators” (JANSSEN PHARMACEUTICA NV, priority 2016, dated 2019).

The target of the first assay is human GluN1/GluN2B NMDA receptors (Homo sapiens, UniProt Q05586+Q13224). Briefly: Cell-based calcium flux (FLIPR) assay on cloned human NR1/NR2B ion channels expressed in mammalian cells. To be noted: standard assay; glutamate at ~EC80; FLIPR calcium flux. The gist of the method: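 Calcium influx followed by FLIPR fluorescence after 5 min compound exposure and a further 5 min co-agonist challenge: 10 μM glycine with glutamate at ~EC80 (standard) or EC40 (HTS).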
Chain of human GluN1/GluN2B NMDA receptors (Q13224 27-1484, other chains not shown): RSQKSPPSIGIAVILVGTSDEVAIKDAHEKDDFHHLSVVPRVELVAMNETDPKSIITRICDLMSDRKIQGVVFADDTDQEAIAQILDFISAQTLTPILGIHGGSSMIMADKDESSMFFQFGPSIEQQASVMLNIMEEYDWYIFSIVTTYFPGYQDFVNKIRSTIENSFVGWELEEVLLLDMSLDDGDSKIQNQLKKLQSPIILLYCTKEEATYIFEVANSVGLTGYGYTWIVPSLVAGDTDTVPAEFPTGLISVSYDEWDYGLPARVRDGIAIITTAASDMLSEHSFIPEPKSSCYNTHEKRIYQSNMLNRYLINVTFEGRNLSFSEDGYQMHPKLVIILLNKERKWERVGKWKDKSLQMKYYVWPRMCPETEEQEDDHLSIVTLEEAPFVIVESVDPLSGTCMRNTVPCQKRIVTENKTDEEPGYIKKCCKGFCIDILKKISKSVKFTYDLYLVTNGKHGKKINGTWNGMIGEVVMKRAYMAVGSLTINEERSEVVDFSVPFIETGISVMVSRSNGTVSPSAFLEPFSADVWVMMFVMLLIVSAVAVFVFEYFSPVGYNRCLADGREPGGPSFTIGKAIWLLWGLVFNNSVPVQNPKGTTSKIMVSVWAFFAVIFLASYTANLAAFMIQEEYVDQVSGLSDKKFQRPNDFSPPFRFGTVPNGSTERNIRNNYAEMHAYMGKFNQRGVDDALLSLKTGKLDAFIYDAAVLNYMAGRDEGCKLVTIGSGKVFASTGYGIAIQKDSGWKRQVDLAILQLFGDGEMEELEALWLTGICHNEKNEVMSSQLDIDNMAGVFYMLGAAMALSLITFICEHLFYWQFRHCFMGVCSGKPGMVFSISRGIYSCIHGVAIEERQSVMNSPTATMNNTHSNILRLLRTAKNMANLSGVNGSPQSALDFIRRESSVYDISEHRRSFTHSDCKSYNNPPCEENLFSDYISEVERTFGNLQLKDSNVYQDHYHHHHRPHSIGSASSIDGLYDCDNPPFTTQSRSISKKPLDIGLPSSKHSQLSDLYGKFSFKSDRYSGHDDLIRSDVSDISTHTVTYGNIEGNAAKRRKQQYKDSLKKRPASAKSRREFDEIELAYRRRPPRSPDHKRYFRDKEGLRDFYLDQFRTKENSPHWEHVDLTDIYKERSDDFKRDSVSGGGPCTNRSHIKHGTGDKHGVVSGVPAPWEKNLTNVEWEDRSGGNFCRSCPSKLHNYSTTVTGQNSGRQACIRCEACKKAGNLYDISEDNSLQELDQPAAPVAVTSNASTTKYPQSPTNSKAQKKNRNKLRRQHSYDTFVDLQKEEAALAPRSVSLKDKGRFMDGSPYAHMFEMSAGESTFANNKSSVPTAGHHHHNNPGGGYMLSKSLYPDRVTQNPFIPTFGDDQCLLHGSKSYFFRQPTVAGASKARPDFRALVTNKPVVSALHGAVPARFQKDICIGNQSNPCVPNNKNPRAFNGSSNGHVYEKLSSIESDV
For orientation: Calcium flux is commonly read through the fluorescence of an indicator in the cells.
As a reminder, the IC50 is the concentration needed to halve the response being measured. With `Cc1cnc(OCc2cn(-c3cc(C)c(F)cc3F)nn2)nc1` [Example 654, 2-[[1-(2,4-Difluoro-5-methyl-phenyl)triazol-4-yl]methoxy]-5-methyl-pyrimidine], the half-maximal inhibitory concentration (IC50) came out at 0.979 µM.

Turning to `Cc1cnc(OCc2cn(-c3ccc(F)c(Cl)c3)nn2)nc1` [Example 620, 2-[[1-(3-Chloro-4-fluoro-phenyl)triazol-4-yl]methoxy]-5-methyl-pyrimidine], the half-maximal inhibitory concentration (IC50) is 0.008 µM.

With `FC(F)c1cc(-n2cc(COc3nccc(N4CCCCC4)n3)nn2)ccc1Cl` [Example 635, 2-[[1-[4-Chloro-3-(difluoromethyl)phenyl]triazol-4-yl]methoxy]-4-(1-piperidyl)pyrimidine], the IC50 is 0.169 µM.

Take `OCc1ccnc(OCc2cn(-c3ccc(F)c(OC(F)F)c3)nn2)n1` [Example 498, [2-[[1-[3-(Difluoromethoxy)-4-fluoro-phenyl]triazol-4-yl]methoxy]pyrimidin-4-yl]methanol]: the half-maximal inhibitory concentration (IC50) came out at 0.019 µM.

As to `CC(F)(F)c1cc(-n2cc(COc3ncc(OC(F)F)cn3)nn2)ccc1F` [Example 572, 2-[[1-[3-(1,1-Difluoroethyl)-4-fluoro-phenyl]triazol-4-yl]methoxy]-5-(difluoromethoxy)pyrimidine], the IC50 amounted to 0.025 µM.

`Fc1ccc(-n2cc(COc3nccc(C(F)(F)F)n3)nn2)cc1C(F)F` [Example 403, 2-[[1-[3-(Difluoromethyl)-4-fluoro-phenyl]triazol-4-yl]methoxy]-4-(trifluoromethyl)pyrimidine]: the IC50 was 0.199 µM.

With `CNc1nc(OCc2cn(-c3ccc(Cl)c(C(C)(F)F)c3)nn2)ncc1F` [Example 549, 2-[[1-[4-Chloro-3-(1,1-difluoroethyl)phenyl]triazol-4-yl]methoxy]-5-fluoro-N-methyl-pyrimidin-4-amine], the half-inhibitory concentration (IC50) is 0.094 µM.

For `CC(F)(F)c1cc(-n2cc(COc3ncc(S(C)(=O)=O)cn3)nn2)ccc1F` [Example 584, 2-[[1-[3-(1,1-Difluoroethyl)-4-fluoro-phenyl]triazol-4-yl]methoxy]-5-methylsulfonyl-pyrimidine], the IC50 worked out at 0.199 µM.

Turning to `CNc1ccnc(OCc2cn(-c3ccc(Cl)c(C(C)(F)F)c3)nn2)n1` [Example 548, 2-[[1-[4-Chloro-3-(1,1-difluoroethyl)phenyl]triazol-4-yl]methoxy]-N-methyl-pyrimidin-4-amine], the half-maximal inhibitory concentration (IC50) amounted to 0.055 µM.

With `Cc1ccc(OCc2cn(-c3ccc(F)c(C(C)(F)F)c3)nn2)nc1C` [Example 560, 6-[[1-[3-(1,1-Difluoroethyl)-4-fluoro-phenyl]triazol-4-yl]methoxy]-2,3-dimethyl-pyridine], the IC50 amounted to 0.052 µM.

Take `Cc1cccc(-n2cc(COc3ncc(Cl)c(C)n3)nn2)c1F` [Example 470, 5-Chloro-2-[[1-(2-fluoro-3-methyl-phenyl)triazol-4-yl]methoxy]-4-methyl-pyrimidine]: the IC50 was determined as 0.659 µM.

For the molecule `Cc1cnc(OCc2cn(-c3ccc(F)c(C)c3F)nn2)nc1N` [Example 651, 2-[[1-(2,4-Difluoro-3-methyl-phenyl)triazol-4-yl]methoxy]-5-methyl-pyrimidin-4-amine], the IC50 is 0.262 µM.

For `CC(C)(O)c1cnc(OCc2cn(-c3ccc(F)c(OC(F)F)c3)nn2)nc1` [Example 500, 2-[2-[[1-[3-(Difluoromethoxy)-4-fluoro-phenyl]triazol-4-yl]methoxy]pyrimidin-5-yl]propan-2-ol], the 50% inhibitory concentration (IC50) was determined as 0.068 µM.

The assay is the same for the next values; noted with them: standard assay; human GluN1/GluN2B, calcium flux (FLIPR), glutamate ~EC80.
For `CC(Oc1ncccn1)c1cn(-c2ccc(Cl)c(OC(F)F)c2)nn1` (single isomer, unassigned) [Example 54, (R*)-2-[1-[1-[4-Chloro-3-(difluoromethoxy)phenyl]triazol-4-yl]ethoxy]pyrimidine], the IC50 is 4.64 µM.

Regarding `COc1cnc(OCc2cn(-c3ccccc3C)nn2)nc1` [Example 238, 5-Methoxy-2-[[1-(o-tolyl)triazol-4-yl]methoxy]pyrimidine], the half-maximal inhibitory concentration (IC50) stood at 5.99 µM.

For `CC(C)c1ccnc(OCc2cn(-c3cccc(C(F)F)c3)nn2)n1` [Example 270], the IC50 came out at 0.617 µM.

Take `COc1cnc(OCc2cn(-c3cccc(C)c3)nn2)nc1` [Example 248, 5-Methoxy-2-[[1-(m-tolyl)triazol-4-yl]methoxy]pyrimidine]: the IC50 was found to be 0.009 µM.

On to `COc1cnc(OCc2cn(-c3cccc(OC(F)(F)F)c3)nn2)nc1` [Example 349, 5-Methoxy-2-[[1-[3-(trifluoromethoxy)phenyl]triazol-4-yl]methoxy]pyrimidine], for which the 50% inhibitory concentration (IC50) is 0.013 µM.

As to `Cc1ccnc(OCc2cn(-c3ccc(F)c(OC(F)F)c3)nn2)c1` [Example 116, 2-[[1-[3-(Difluoromethoxy)-4-fluoro-phenyl]triazol-4-yl]methoxy]-4-methyl-pyridine], the 50% inhibitory concentration (IC50) worked out at 0.102 µM.

Take `COc1cnc(OCc2cn(-c3ccc(OC(F)(F)F)cc3)nn2)nc1` [Example 337, 5-Methoxy-2-[[1-[4-(trifluoromethoxy)phenyl]triazol-4-yl]methoxy]pyrimidine]: the IC50 is above 10 µM.

For the molecule `Fc1ccc(-n2cc(COc3nccc(N4CCC(F)(F)C4)n3)nn2)cc1OC(F)F` [Example 166, 2-[[1-[3-(Difluoromethoxy)-4-fluoro-phenyl]triazol-4-yl]methoxy]-4-(3,3-difluoropyrrolidin-1-yl)pyrimidine], the IC50 was 0.144 µM.

Regarding `CC(C)c1cnc(OCc2cn(-c3ccc(Cl)c(C(F)F)c3)nn2)nc1` [Example 48, 2-[[1-[4-Chloro-3-(difluoromethyl)phenyl]triazol-4-yl]methoxy]-5-isopropyl-pyrimidine], the IC50 amounted to 0.008 µM.

As for `Cc1cnc(OCc2cn(-c3ccc(F)c(Br)c3)nn2)nc1C` [Example 85, 2-[[1-(3-Bromo-4-fluoro-phenyl)triazol-4-yl]methoxy]-4,5-dimethyl-pyrimidine], the IC50 turned out to be 0.003 µM.

For `COc1cnc(O[C@@H](C)c2cn(-c3ccc(Cl)c(OC(F)F)c3)nn2)nc1` [Example 381, 2-[(1S)-1-[1-[4-Chloro-3-(difluoromethoxy)phenyl]triazol-4-yl]ethoxy]-5-methoxy-pyrimidine], the IC50 was found to be 0.196 µM.

With `CC(C)(O)c1cnc(OCc2cn(-c3cccc(OC(F)(F)F)c3)nn2)nc1` [Example 345, 2-[2-[[1-[3-(Trifluoromethoxy)phenyl]triazol-4-yl]methoxy]pyrimidin-5-yl]propan-2-ol], the IC50 was found to be 0.284 µM.

Turning to `FC(F)c1cc(-n2cc(CNc3ccncn3)nn2)ccc1Cl` [Example 110, N-[[1-[4-Chloro-3-(difluoromethyl)phenyl]triazol-4-yl]methyl]pyrimidin-4-amine], the IC50 stood at 7.57 µM.

As to `Fc1cnc(OCc2cn(-c3ccc(F)c(Br)c3)nn2)nc1` [Example 19, 2-[[1-(3-Bromo-4-fluoro-phenyl)triazol-4-yl]methoxy]-5-fluoropyrimidine], the IC50 worked out at 0.056 µM.

For `Cc1cccc(-n2cc(COc3nccc(C)n3)nn2)c1` [Example 244, 4-Methyl-2-[[1-(m-tolyl)triazol-4-yl]methoxy]pyrimidine], the IC50 was determined as 0.191 µM.

With `CC(=O)c1cnc(OCc2cn(-c3cccc(C)c3)nn2)nc1` [Example 255, 1-[2-[[1-(m-Tolyl)triazol-4-yl]methoxy]pyrimidin-5-yl]ethanone], the IC50 turned out to be 0.224 µM.

For `COc1cnc(OCc2cn(-c3ccc(Cl)c(C(F)F)c3)nn2)nc1` [Example 46, 2-[[1-[4-Chloro-3-(difluoromethyl)phenyl]triazol-4-yl]methoxy]-5-methoxy-pyrimidine], the IC50 was 0.001 µM.
